# Test system: not listed separately
# Experiment: Toxicity in po dosed Guinea pig assessed as effective dose
# Format: organism-based, Cavia porcellus
# Details: in vivo
row,Compound,ED50 [mg/kg]
1,COc1cc(C(=O)NS(=O)(=O)c2ccccc2C)ccc1Cc1cn(C)c2ccc(NC(=O)OC3CCCC3)cc12 [ZAFIRLUKAST],0.3
2,COc1cc(C(=O)NS(=O)(=O)c2ccccc2)ccc1Cc1cn(C)c2ccc(NC(=O)OC3CCCC3)cc12,2.5

# Target: CDK12/Cyclin K (Homo sapiens, UniProt Q9NYV4)
# Experiment: Inhibition of 6His-tagged wild type CDK12/cyclin K (unknown origin) infected in insect cells incubated for 1 hr by TR-FRET assay
# Details: not given
# Chain of CDK12/Cyclin K (O75909 whole entry): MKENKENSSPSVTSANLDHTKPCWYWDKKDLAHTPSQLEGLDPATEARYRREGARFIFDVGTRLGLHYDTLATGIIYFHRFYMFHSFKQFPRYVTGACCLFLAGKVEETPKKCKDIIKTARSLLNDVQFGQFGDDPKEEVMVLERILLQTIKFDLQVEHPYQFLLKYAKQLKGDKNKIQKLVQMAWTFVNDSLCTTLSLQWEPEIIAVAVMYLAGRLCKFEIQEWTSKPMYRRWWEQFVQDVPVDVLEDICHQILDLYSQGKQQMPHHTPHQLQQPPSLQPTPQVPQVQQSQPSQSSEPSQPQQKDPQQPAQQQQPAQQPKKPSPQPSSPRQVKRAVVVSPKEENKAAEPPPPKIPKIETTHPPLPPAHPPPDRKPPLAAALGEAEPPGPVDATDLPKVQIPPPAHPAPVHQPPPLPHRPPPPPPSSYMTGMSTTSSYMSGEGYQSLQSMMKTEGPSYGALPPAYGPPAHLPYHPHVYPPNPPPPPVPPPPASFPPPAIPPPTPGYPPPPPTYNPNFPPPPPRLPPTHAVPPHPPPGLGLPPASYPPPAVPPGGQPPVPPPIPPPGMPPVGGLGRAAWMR
# Chain of CDK12/Cyclin K (Q9NYV4 whole entry): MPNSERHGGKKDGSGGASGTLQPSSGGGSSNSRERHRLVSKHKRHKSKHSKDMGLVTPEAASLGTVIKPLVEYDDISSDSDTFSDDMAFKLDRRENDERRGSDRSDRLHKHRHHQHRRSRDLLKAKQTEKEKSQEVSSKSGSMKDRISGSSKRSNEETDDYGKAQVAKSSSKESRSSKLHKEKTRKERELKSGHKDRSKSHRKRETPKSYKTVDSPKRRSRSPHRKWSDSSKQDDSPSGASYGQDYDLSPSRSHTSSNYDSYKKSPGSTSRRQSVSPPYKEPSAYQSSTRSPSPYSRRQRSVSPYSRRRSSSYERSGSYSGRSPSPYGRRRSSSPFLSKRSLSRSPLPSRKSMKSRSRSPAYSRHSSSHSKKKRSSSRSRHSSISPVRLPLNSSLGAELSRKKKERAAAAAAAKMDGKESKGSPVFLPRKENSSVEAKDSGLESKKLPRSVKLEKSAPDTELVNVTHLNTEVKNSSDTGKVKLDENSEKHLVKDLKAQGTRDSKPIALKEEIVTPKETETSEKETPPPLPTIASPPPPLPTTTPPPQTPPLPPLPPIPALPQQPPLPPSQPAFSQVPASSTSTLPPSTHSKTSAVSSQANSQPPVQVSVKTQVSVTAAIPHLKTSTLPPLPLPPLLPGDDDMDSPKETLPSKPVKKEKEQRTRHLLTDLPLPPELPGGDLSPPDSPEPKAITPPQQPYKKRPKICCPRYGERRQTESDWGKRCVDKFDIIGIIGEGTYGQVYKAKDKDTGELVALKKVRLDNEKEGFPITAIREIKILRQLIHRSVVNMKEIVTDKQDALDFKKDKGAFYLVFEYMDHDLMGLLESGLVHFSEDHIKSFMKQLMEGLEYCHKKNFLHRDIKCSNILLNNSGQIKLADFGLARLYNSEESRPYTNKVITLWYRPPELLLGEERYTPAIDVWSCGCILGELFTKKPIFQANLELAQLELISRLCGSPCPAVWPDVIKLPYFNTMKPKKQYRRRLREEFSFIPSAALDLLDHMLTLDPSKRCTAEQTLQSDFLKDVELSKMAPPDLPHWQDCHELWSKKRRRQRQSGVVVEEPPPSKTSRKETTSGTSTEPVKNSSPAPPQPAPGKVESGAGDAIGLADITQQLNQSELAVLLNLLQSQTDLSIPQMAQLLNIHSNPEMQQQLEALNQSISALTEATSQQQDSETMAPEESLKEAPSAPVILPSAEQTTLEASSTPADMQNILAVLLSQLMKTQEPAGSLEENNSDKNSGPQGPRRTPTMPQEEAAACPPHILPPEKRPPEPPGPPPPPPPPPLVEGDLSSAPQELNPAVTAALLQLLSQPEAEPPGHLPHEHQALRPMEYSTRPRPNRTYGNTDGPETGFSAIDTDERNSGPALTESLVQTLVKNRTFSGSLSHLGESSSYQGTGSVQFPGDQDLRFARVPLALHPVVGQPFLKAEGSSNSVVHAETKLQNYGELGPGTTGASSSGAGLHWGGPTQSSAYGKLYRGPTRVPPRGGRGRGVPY
row,Compound,EC50 [nM]
1,CC[C@H](CO)Nc1nc(NCCCc2cccc(F)c2)c2ncn(C(C)C)c2n1,46
2,CC[C@H](CO)Nc1nc(NCCCc2ccco2)c2ncn(C(C)C)c2n1,603
3,CC[C@H](CO)Nc1nc(NCc2ccc(-c3ccncc3)cc2)c2ncn(C(C)C)c2n1,36
4,CC[C@H](CO)Nc1nc(NCc2ccc3ccccc3c2)c2ncn(C(C)C)c2n1,60
5,CC[C@H](CO)Nc1nc(NCc2ccc(-c3ccc(C)s3)cc2)c2ncn(C(C)C)c2n1,15
6,CC[C@H](CO)Nc1nc(NCCCCCc2cccc3ccccc23)c2ncn(C(C)C)c2n1,182
7,CC[C@H](CO)Nc1nc(NCc2nc3ccc(F)c(F)c3[nH]2)c2ncn(C(C)C)c2n1,41
8,CC[C@H](CO)Nc1nc(NCCCc2ccnn2C)c2ncn(C(C)C)c2n1,246

# Second part, the compound after the results:
row,EC50 [nM],Compound
1,21,CC[C@H](CO)Nc1nc(NCCCc2ccc(Cl)c(Cl)c2)c2ncn(C(C)C)c2n1
2,78,CC[C@H](CO)Nc1nc(NCc2ccc(-c3ccccn3)c(F)c2)c2ncn(C(C)C)c2n1
3,18,CC[C@H](CO)Nc1nc(NCCCc2ccc(C)c(C)c2)c2ncn(C(C)C)c2n1
4,17,CC[C@H](CO)Nc1nc(NCc2ccc(-c3ccccc3)cc2)c2ncn(C(C)C)c2n1
5,57,CC[C@H](CO)Nc1nc(NCCCc2ccccc2)c2ncn(C(C)C)c2n1
6,35,CC[C@H](CO)Nc1nc(NCCCc2cccc(C)c2)c2ncn(C(C)C)c2n1
7,36,CC[C@H](CO)Nc1nc(NCCCc2cccc(C)n2)c2ncn(C(C)C)c2n1
8,44,CC[C@H](CO)Nc1nc(NCc2ccn(-c3cccc(Cl)c3)n2)c2ncn(C(C)C)c2n1
9,21,CC[C@H](CO)Nc1nc(NCc2ccc(-c3ccccn3)c(=O)[nH]2)c2ncn(C(C)C)c2n1
10,28,CC[C@H](CO)Nc1nc(NCc2ccc(-c3ccncc3)nc2)c2ncn(C(C)C)c2n1

# Species: Cavia porcellus
# Experiment: Binding affinity to Guinea pig Leukotriene receptor
# Details: filed as antagonist
row,pKb,Compound
1,9.69,COc1cc(C(=O)NS(=O)(=O)c2ccccc2)ccc1Cc1cn(C)c2ccc(NC(=O)OC3CCCC3)cc12
